Values of other authors as cited in patent US7723473B2, “Peptide antagonists of TGF-beta family members and therapeutic uses thereof” (St. Louis University, priority 1997, dated 2010).

Biological target: T1, α2-macroglobulin (Homo sapiens, UniProt P01023)
T1 sequence (P01023 24-1474): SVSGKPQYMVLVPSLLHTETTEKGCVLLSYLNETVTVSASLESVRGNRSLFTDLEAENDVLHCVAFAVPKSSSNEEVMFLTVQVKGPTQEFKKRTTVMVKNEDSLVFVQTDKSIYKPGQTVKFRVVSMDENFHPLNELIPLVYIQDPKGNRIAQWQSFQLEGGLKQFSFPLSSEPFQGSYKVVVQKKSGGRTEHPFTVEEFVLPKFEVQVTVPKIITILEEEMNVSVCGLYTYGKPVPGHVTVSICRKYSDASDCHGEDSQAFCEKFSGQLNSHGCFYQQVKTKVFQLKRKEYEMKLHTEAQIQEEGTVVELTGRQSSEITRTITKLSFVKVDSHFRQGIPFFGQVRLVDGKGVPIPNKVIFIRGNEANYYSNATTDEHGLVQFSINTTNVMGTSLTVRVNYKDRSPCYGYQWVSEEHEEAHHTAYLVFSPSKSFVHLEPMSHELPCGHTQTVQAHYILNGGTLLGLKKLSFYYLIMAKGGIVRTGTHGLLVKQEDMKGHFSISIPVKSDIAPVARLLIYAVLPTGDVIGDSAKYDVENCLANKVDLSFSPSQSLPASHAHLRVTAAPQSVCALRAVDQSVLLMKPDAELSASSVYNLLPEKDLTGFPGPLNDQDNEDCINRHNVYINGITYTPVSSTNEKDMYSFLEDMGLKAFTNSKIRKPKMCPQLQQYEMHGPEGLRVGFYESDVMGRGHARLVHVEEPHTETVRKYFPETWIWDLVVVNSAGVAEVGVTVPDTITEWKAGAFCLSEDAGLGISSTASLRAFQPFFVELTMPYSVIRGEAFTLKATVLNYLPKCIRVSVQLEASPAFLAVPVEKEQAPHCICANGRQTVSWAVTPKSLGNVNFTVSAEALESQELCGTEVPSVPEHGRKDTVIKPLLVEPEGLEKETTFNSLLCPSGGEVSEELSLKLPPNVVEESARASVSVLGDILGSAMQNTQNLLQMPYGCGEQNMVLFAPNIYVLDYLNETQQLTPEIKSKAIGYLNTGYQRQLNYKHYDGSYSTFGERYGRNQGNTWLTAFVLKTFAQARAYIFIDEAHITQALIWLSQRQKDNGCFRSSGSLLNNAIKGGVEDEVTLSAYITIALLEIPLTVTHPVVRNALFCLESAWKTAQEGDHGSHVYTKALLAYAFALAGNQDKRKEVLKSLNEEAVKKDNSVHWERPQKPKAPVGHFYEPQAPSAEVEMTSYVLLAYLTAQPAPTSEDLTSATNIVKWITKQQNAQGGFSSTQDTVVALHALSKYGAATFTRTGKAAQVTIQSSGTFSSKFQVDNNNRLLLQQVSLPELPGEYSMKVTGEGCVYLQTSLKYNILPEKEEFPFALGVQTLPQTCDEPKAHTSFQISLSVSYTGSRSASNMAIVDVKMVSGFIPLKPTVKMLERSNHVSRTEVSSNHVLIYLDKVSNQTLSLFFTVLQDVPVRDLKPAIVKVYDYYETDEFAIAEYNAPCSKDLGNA
Settings: Ref. 22; cited from earlier work

## ANFCLGPCPYIWSLDTQYSKVLALY [peptide β1^25 (41-65)]
  complex formation between α2-macroglobulin and growth factors, cytokines and hormones: block complex formation
